Source: the NIST ThermoML archive (doi:10.1016/j.jct.2015.02.011)

Test: refractive index (Na D-line) (dimensionless); xn = mol fraction of the nth substance listed
Settings: 100.7 kPa, Liquid, Standard Abbe refractometry

CCCCn1cc[n+](C)c1.F[P-](F)(F)(F)(F)F [1-butyl-3-methylimidazolium hexafluorophosphate] + C1CCOC1
refractive index
Settings | x1 = 0.0871 | x1 = 0.1801 | x1 = 0.2893 | x1 = 0.3939 | x1 = 0.4994 | x1 = 0.5709 | x1 = 0.7163 | x1 = 0.8069 | x1 = 0.9012 | x1 = 1
293.15 K | 1.41126 | 1.41369 | 1.41462 | 1.41441 | 1.41373 | 1.41332 | 1.41236 | 1.41205 | 1.41131 | 1.41068
298.15 K | 1.40906 | 1.41157 | 1.41279 | 1.41273 | 1.41208 | 1.4117 | 1.41089 | 1.41059 | 1.41014 | 1.40943
303.15 K | 1.40701 | 1.40957 | 1.41105 | 1.41113 | 1.41065 | 1.41025 | 1.40964 | 1.40935 | 1.40895 | 1.40818
308.15 K | 1.40475 | 1.40747 | 1.40915 | 1.40938 | 1.4092 | 1.40877 | 1.40818 | 1.40793 | 1.40778 | 1.40693
313.15 K | 1.40262 | 1.40554 | 1.40754 | 1.40784 | 1.40779 | 1.40748 | 1.40693 | 1.40681 | 1.40666 | 1.40567
318.15 K | 1.40012 | 1.40345 | 1.40558 | 1.40611 | 1.40619 | 1.40595 | 1.40552 | 1.40541 | 1.40525 | 1.40443
323.15 K | 1.39781 | 1.40139 | 1.40377 | 1.40455 | 1.40451 | 1.40452 | 1.40428 | 1.40425 | 1.40393 | 1.40312

CCCCCCCC[n+]1ccn(C)c1.F[P-](F)(F)(F)(F)F [1-octyl-3-methylimidazolium hexafluorophosphate] + C1CCOC1
refractive index
Settings | x1 = 0.0767 | x1 = 0.1791 | x1 = 0.2783 | x1 = 0.3996 | x1 = 0.5198 | x1 = 0.612 | x1 = 0.6957 | x1 = 0.7754 | x1 = 0.8991 | x1 = 1
293.15 K | 1.41505 | 1.4205 | 1.42326 | 1.42412 | 1.42414 | 1.42411 | 1.42421 | 1.42432 | 1.42436 | 1.42441
298.15 K | 1.41278 | 1.41848 | 1.42126 | 1.42242 | 1.42258 | 1.42272 | 1.42284 | 1.42306 | 1.42329 | 1.42312
303.15 K | 1.41061 | 1.41646 | 1.41956 | 1.42076 | 1.42102 | 1.42123 | 1.42161 | 1.42189 | 1.42202 | 1.42171
308.15 K | 1.40824 | 1.41452 | 1.41786 | 1.4191 | 1.41946 | 1.41974 | 1.42018 | 1.42042 | 1.42085 | 1.42029
313.15 K | 1.40587 | 1.41284 | 1.41616 | 1.41744 | 1.4179 | 1.41825 | 1.41865 | 1.41915 | 1.41958 | 1.41888
318.15 K | 1.4035 | 1.41116 | 1.41446 | 1.41578 | 1.41634 | 1.41676 | 1.41712 | 1.41788 | 1.41831 | 1.4175
323.15 K | 1.40113 | 1.40948 | 1.41276 | 1.41412 | 1.41478 | 1.41527 | 1.41559 | 1.41661 | 1.41704 | 1.41601

CCCCCCn1cc[n+](C)c1.F[P-](F)(F)(F)(F)F [1-hexyl-3-methylimidazolium hexafluorophosphate] + C1CCOC1
refractive index
Settings | x1 = 0.1036 | x1 = 0.2002 | x1 = 0.2868 | x1 = 0.4134 | x1 = 0.5222 | x1 = 0.6239 | x1 = 0.6951 | x1 = 0.7978 | x1 = 0.8953 | x1 = 1
293.15 K | 1.416 | 1.41971 | 1.42081 | 1.42058 | 1.41962 | 1.41895 | 1.41874 | 1.41868 | 1.41858 | 1.41958
298.15 K | 1.41392 | 1.41772 | 1.41878 | 1.41884 | 1.41828 | 1.41755 | 1.41759 | 1.41752 | 1.41756 | 1.41832
303.15 K | 1.41184 | 1.41573 | 1.41707 | 1.4171 | 1.41694 | 1.41615 | 1.41644 | 1.41636 | 1.41654 | 1.41692
308.15 K | 1.40966 | 1.41374 | 1.41536 | 1.41556 | 1.41536 | 1.41475 | 1.41509 | 1.41512 | 1.41552 | 1.41564
313.15 K | 1.40748 | 1.41175 | 1.41365 | 1.41402 | 1.41378 | 1.41335 | 1.41374 | 1.41388 | 1.4145 | 1.41422
318.15 K | 1.4053 | 1.40976 | 1.41194 | 1.41248 | 1.4122 | 1.41195 | 1.41239 | 1.41264 | 1.41348 | 1.41306
323.15 K | 1.40312 | 1.40777 | 1.41023 | 1.41094 | 1.41062 | 1.41055 | 1.41104 | 1.4114 | 1.41246 | 1.41175
